Values quoted from earlier work in patent US20090023693A1, “NEW DROSPIRENONE/17BETA-ESTRADIOL REGIMEN, PHARMACEUTICAL COMBINATION PRODUCT AND KIT FOR PERFORMING THIS REGIMEN” (priority 2007, published 2009).

How the values were obtained:
[1] = target: T1, mineralocorticoid receptor (Homo sapiens, UniProt P08235); conditions: compared with aldosterone
T1 sequence (P08235 1-984): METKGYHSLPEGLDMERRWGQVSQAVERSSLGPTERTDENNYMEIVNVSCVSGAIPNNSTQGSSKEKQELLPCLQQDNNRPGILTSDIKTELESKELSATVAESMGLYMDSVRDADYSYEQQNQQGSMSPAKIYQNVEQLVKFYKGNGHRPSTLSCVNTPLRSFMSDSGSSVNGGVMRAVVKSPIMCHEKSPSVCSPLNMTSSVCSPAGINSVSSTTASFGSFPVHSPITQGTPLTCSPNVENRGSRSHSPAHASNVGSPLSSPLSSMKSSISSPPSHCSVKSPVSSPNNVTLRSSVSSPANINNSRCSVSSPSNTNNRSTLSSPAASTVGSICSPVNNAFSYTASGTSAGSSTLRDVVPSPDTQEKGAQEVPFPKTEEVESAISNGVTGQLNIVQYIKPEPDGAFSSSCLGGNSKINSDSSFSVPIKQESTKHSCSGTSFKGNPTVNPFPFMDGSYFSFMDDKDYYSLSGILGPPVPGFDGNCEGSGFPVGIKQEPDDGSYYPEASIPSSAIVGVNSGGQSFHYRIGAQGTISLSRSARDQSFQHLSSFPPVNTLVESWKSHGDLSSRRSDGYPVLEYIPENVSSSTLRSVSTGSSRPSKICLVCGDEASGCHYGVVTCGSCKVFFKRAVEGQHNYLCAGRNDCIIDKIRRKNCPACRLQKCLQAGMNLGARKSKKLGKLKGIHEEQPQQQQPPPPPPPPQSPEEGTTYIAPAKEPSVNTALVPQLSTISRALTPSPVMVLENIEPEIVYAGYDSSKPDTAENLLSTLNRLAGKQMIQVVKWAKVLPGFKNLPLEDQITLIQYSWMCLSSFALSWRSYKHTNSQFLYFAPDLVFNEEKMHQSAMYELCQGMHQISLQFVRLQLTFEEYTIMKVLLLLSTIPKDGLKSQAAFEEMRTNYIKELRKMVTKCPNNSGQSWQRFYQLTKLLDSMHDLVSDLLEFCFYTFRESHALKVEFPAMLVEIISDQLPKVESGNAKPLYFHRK

[2] = oral vs transdermal

C[C@]12CCC(=O)C=C1[C@@H]1C[C@@H]1[C@H]1[C@@H]3[C@@H]4C[C@@H]4[C@@]4(CCC(=O)O4)[C@@]3(C)CC[C@@H]12 [drospirenone, Drospirenone]
blood pressure (hypertensive women): lowered | salt and water retention (in vivo): reduced | affinity for the mineralocorticoid receptor relative to aldosterone [1]: about five times that of aldosterone | bioavailabilities after oral and transdermal administration [2]: roughly the same
